Experimental data as given in patent publication US12459912B2 (priority 2020, dated 2025).
Entries after “also recorded” stand apart in the source; their conditions may differ.

Experiments:
[1] = target: T1, human 5-HT transporter (hSERT) (Homo sapiens, UniProt P31645); test: Human serotonin transporter antagonist radioligand assay ([^3H]imipramine, CHO cells); format: binding
T1 construct: expressed in transfected cells; host or cells: CHO cells
Description: We therefore separately measured interactions with these transporters using two additional types of assays: an antagonist radioligand assay of inhibition of the human 5-HT transporter (hSERT) expressed in CHO cells (Tatsumi, M. et al. (1999), Eur. J. Pharmacol., 368: 277-283) and an assay measuring release of [^3H] […] While the former is sensitive to classic reuptake inhibition, the latter can detect the effects of substrates, which also induce release.
Benzothiophene derivatives were evaluated for inhibiting the human 5-HT transporter (hSERT) as expressed in CHO cells using an antagonist radioligand assay (Tatsumi, M. et al. (1999), Eur. J. Pharmacol., 368: 277-283). […] Test compounds were assayed in three trials at […], and 0.94868 μM.
When compounds are substrates for monoamine transporters instead of solely inhibitors, it is known that IC50 values underestimate their potency for interacting with these transporters (Ilic, M. et al. (2020), Frontiers in Pharmacology 11: 673).

[2] = target: T2, human DAT (Homo sapiens, UniProt Q01959); test: hDAT [^3H]dopamine release assay (CHO cells); format: cell-based; conditions: for DAT/SERT ratio: (DAT EC50)^−1/(SERT EC50)^−1, larger numbers indicate higher DAT selectivity; for [^3H]-labeled dopamine release (figure legend): percent of max release compared to a control, as function of concentration
T2 construct: expressed in transfected cells

[3] = target: T3, human SERT (Homo sapiens, UniProt P31645); test: hSERT [^3H]serotonin release assay (CHO cells); format: cell-based; conditions: for [^3H]-labeled serotonin release (figure legend): percent of max release compared to a control, as function of concentration
T3 construct: expressed in transfected cells

[4] = system: Swiss CD 1 mice; test: Marble burying test; format: in vivo; conditions: racemic compounds, intraperitoneally 30 minutes before a 30-min session
[5] = target: 5-Hydroxytryptamine (Serotonin) Receptor 1B (5-HT1B) (Homo sapiens, UniProt P28222); test: 5-HT1B/cAMP; format: cell-based; conditions: EC50 at 5-HT1B, agonist
[6] = Poos 1967; cited from earlier work
[7] = target: MAO-A (Rattus norvegicus, UniProt P21396); conditions: read-out: IC50 MAO-A; Vallejos et al. 2005; cited from earlier work
[8] = target: 5-HT1B (Homo sapiens, UniProt P28222); conditions: Ray 2010; cited from earlier work
[9] = system: neuritogenesis; conditions: Ly et al. 2018, cited from earlier work
[10] = target: T4, nAChR(a4/b2) (Nicotinic acetylcholine Receptor α4 β2) (Homo sapiens, UniProt P17787+P43681); test: cell-based; conditions: reference compound, Blocker mode; read-out: RC50 (μM), Result Type IC50
T4 construct: expressed in transfected cells

[11] = target: T5, GABAA (Gamma-aminobutyric acid Receptor A); format: cell-based; conditions: reference compound, Blocker mode; read-out: RC50 (μM), Result Type IC50
T5 construct: other: opener

Sequence of 5-Hydroxytryptamine (Serotonin) Receptor 1B (5-HT1B) (P28222 whole entry): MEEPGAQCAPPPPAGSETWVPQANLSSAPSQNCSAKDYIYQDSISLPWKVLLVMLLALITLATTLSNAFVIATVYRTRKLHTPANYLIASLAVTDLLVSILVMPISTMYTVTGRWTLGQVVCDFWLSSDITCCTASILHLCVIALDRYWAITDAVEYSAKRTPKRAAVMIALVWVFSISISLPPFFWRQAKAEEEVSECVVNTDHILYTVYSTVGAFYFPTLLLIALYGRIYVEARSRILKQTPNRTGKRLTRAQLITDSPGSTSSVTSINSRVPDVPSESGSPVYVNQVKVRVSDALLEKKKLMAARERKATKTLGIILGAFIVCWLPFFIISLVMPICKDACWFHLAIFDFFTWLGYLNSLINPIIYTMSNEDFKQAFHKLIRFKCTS
T1 sequence (P31645 whole entry): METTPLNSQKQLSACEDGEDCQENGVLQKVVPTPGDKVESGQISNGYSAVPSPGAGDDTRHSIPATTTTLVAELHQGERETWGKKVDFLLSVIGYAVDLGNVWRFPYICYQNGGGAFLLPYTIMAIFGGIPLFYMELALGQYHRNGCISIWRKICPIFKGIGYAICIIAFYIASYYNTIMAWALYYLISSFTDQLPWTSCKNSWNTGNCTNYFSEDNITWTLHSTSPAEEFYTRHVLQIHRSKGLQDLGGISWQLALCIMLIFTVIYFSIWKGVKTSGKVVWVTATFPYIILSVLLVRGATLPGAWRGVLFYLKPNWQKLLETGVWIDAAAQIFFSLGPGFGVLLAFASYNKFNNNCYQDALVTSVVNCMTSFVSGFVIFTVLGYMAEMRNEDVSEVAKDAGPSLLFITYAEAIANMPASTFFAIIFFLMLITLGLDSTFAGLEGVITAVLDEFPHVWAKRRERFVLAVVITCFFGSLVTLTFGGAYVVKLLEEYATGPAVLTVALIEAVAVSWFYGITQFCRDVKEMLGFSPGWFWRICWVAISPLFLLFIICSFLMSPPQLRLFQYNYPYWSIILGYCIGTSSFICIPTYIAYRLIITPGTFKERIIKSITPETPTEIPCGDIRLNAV
T3 sequence (P31645 whole entry): as above
T2 sequence (Q01959 whole entry): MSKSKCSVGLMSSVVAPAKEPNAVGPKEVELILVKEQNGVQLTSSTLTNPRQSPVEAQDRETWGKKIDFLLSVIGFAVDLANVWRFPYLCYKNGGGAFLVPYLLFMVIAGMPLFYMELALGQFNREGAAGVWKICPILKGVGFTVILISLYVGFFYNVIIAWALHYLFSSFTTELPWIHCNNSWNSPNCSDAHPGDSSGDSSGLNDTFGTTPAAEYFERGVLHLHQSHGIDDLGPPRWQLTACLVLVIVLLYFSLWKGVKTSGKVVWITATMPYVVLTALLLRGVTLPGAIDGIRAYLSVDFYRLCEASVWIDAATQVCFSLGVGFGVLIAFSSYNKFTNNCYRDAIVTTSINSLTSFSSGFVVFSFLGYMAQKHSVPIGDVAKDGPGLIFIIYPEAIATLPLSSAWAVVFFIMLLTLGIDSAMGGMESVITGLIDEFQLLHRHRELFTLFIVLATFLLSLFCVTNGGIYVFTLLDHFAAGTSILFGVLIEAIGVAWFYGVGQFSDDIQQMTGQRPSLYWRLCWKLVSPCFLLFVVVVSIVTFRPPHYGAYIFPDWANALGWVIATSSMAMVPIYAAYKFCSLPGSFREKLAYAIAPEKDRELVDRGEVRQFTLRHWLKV
Sequence of 5-HT1B (P28222 whole entry, species assumed): as the sequence (P28222 whole entry) above
T4 sequence (P43681 29-627 limits assumed): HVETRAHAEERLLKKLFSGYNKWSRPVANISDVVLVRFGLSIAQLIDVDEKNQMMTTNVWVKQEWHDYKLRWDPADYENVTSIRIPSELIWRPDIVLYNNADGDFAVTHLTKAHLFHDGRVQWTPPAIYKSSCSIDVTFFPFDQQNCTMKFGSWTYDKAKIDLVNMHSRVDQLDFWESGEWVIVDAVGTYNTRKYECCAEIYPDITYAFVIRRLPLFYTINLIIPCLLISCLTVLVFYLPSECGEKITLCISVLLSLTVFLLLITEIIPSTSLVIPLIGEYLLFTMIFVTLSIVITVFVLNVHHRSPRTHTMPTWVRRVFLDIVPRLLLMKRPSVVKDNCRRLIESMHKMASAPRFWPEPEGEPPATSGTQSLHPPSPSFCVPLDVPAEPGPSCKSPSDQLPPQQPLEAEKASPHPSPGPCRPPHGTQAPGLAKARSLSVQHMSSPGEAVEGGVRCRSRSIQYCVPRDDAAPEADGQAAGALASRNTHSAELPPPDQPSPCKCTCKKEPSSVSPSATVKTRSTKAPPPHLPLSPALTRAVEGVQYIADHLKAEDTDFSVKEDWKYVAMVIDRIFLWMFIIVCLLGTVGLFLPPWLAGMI
T4 sequence (P17787 26-502): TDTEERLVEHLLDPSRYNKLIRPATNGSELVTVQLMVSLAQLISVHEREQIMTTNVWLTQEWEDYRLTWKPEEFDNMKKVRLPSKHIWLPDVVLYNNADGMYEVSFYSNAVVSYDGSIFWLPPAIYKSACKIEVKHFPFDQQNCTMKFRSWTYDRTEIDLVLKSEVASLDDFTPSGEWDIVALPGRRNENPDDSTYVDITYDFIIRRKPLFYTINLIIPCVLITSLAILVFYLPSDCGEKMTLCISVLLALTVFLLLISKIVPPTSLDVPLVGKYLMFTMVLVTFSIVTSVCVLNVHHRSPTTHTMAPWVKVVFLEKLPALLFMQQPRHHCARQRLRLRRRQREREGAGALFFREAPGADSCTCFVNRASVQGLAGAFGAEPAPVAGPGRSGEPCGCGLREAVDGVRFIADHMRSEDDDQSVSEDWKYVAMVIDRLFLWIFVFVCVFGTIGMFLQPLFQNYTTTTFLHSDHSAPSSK
Sequence of MAO-A (P21396 whole entry): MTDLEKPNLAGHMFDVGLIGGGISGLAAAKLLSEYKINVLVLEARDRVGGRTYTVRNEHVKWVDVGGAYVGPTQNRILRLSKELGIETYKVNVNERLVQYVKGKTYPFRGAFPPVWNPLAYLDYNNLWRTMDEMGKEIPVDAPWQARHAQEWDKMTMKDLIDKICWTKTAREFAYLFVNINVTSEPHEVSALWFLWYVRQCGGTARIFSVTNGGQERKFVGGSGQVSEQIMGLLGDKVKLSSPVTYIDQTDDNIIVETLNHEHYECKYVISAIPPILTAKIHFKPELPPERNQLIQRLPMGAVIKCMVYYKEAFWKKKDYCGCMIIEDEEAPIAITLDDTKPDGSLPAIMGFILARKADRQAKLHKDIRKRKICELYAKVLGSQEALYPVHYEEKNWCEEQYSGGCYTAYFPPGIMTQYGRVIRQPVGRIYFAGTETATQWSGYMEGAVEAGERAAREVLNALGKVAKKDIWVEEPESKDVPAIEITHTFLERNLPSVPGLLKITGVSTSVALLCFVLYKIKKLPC

Row | Compound | IC50 [1] | Ki [1] | EC50 [2] | DAT/SERT ratio [2] | [^3H]-labeled dopamine release (figure legend) [2] | EC50 [3] | [^3H]-labeled serotonin release (figure legend) [3] | anxiolytic effect (marbles left unburied versus placebo) [4] | also measured
1 | CNC(C)Cc1ccc2sccc2c1 (stereo not shown) | 250 nM | 120 nM | – | – | – | – | – | – | –
2 | CNC(C)C(=O)c1ccc2sccc2c1 (stereo not shown) | 2000 nM | 900 nM | – | – | – | – | – | – | –
3 | CCNC(C)Cc1ccc2sccc2c1 (stereo not shown) | 100 nM | 50 nM | – | – | – | – | – | – | –
4 | CNC(C)C(=O)c1ccc2sccc2c1.Cl (stereo not shown) [Bk-5-MAPBT, 1-(benzo[b]thiophen-5-yl)-2-(methylamino) propan-1-one hydrochloride] | – | – | 194 nM | 0.52 | rapidly induces extracellular dopamine and serotonin release | 101 nM | rapidly induces extracellular dopamine and serotonin release | dose-dependent anxiolytic effects | EC50 [5]: 59 nM
5 | CC(N)Cc1csc2ccccc12 (stereo not shown) [Compound 3-APBT, 1-(1-benzothiophen-3-yl)propan-2-amine] | – | – | – | – | – | – | – | – | effect on appetite [6]: acted to reduce appetite; IC50 [7]: 16.2 ± 0.4 µM
6 | CCNC(C)Cc1ccc2sccc2c1.Cl (stereo not shown) [Compound 5-EAPBT, 1-(benzothiophen-5-yl)-N-ethylpropan-2-amine hydrochloride] | – | – | 98 nM | 0.54 | rapidly induces extracellular dopamine and serotonin release | 53 nM | rapidly induces extracellular dopamine and serotonin release | dose-dependent anxiolytic effects | dopamine release Emax in comparison to the reference releaser amphetamine ([2]; high concentrations, 100 μM amphetamine as reference, hydrochloride): partial DAT substrate; also recorded: Emax below that of the reference releaser
7 | CNC(C)Cc1ccc2sccc2c1.Cl (stereo not shown) [Compound 5-MAPBT, 1-(benzothiophen-5-yl)-N-methylpropan-2-amine hydrochloride] | – | – | 129 nM | 0.18 | rapidly induces extracellular dopamine and serotonin release | 23 nM | rapidly induces extracellular dopamine and serotonin release | dose-dependent anxiolytic effects | EC50 [5]: 38 nM
8 | CNC(C)Cc1ccc2ccsc2c1.Cl (stereo not shown) [Compound 6-MAPBT, 1-(benzothiophen-6-yl)-N-methylpropan-2-amine hydrochloride] | – | – | 71 nM | 0.80 | rapidly induces extracellular dopamine and serotonin release | 57 nM | rapidly induces extracellular dopamine and serotonin release | dose-dependent anxiolytic effects | EC50 [5]: 24 nM
9 | CNC(C)Cc1ccc2c(c1)OCO2 (stereo not shown) [MDMA] | – | – | – | – | – | – | – | – | binding to 5-HT1B [8]: does not bind directly; Emax for promoting neuritogenesis relative to ketamine [9]: approximately twice that of ketamine; EC50 ([9]; read-out: EC50 for promoting neuritogenesis): 7.41 nM
10 | CNC(C)Cc1ccc2ccsc2c1 (stereo not shown) [drawing 525] | 1500 nM | 680 nM | – | – | – | – | – | – | –
11 | Dihydro-AY-erythroidine [reference compound] | – | – | – | – | – | – | – | – | IC50 [10]: 0.682 µM
12 | Picrotoxin [reference compound] | – | – | – | – | – | – | – | – | IC50 [11]: 2.78 µM
